The values below come from patent US7786141B2 (Vertex Pharmaceuticals Incorporated, priority 2004, dated 2010).

In one assay the target is T1, M1 muscarinic receptor (Homo sapiens, UniProt P11229).
T1 construct: expressed in transfected cells; host or cells: CHO (M1-CHO)
T1 sequence (P11229 1-460): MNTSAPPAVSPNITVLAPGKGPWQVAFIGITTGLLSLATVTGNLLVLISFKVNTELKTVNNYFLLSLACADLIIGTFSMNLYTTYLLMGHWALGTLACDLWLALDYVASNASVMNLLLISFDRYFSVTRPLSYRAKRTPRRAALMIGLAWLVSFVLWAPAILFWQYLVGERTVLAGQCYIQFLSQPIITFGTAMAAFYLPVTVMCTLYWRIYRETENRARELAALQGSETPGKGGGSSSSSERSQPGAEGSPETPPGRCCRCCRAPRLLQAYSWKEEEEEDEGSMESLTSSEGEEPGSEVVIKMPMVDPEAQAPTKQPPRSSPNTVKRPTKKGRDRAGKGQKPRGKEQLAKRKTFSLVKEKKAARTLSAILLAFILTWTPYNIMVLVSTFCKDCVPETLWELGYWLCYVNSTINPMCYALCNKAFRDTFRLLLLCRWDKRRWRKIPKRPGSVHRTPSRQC
Nature of the assay: Functional mobilization of intracellular calcium (FLIPR) in M1-CHO cells. It is filed as cell-based. The following applies: Table 4; for Emax: 100% efficacy is the maximum response obtained with the Carbachol control; for M1 Activity: modulating M1 receptor. The gist of the method: (§1)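 Steps: seed M1- or M4-CHO cells 18-24 hrs ahead; load calcium dye with 1 mM probenecid; add test compound (0.5% DMSO final), either alone for agonism or 15 min before EC80 carbachol for inhibition; record FLIPR fluorescence for 60 sec.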

The next assay concerns the target T2, M4 muscarinic receptor (Homo sapiens, UniProt P08173).
T2 construct: expressed in transfected cells; host or cells: CHO (M4-CHO)
T2 sequence (P08173 1-479): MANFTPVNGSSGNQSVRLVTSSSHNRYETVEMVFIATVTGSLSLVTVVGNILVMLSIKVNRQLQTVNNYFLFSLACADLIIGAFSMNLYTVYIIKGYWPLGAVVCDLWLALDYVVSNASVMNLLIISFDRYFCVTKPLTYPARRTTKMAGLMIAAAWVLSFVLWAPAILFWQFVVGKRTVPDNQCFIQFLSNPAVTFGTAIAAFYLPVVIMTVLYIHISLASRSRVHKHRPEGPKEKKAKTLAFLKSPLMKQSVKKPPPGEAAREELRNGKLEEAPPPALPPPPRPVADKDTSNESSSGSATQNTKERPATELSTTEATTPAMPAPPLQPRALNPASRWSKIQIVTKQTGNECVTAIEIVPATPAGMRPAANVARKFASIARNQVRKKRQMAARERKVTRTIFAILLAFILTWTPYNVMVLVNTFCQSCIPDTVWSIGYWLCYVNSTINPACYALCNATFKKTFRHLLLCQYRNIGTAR
Nature of the assay: Functional mobilization of intracellular calcium (FLIPR) in M4-CHO cells. In kind it is cell-based. The following applies: Table 4; for Emax: 100% efficacy is the maximum response obtained with the Carbachol control; for M4 Activity: modulating M4 receptor. The gist of the method:
as §1

Turning to `CC(=O)N1CC2(CCN(CC3CC3)CC2)c2cc(F)ccc21` [compound 577], on M1 muscarinic receptor, the Emax is under 25% and the “M1 Activity” value was “x (activity was measured to be greater than 5.0 μM)”. At M4 muscarinic receptor, the Emax is under 25% and the “M4 Activity” value is recorded as “x (activity was measured to be greater than 5.0 μM)”.
Take `CCC#CCOC(=O)N1CC[C@H](CN2CCC3(CC2)CN(C(C)=O)c2ccccc23)C1` [compound 578]: at M1 muscarinic receptor, the maximum response (Emax) fell in the range of 25 to 100% and the “M1 Activity” value is “xxx (activity was measured to be less than 2.0 μM)”. Also, at M4 muscarinic receptor, the maximum response (Emax) lay within 25 to 100% and the “M4 Activity” value is on record as “xxx (activity was measured to be less than 2.0 μM)”.
Consider `CCOC(=O)N1CCC(N2CCC3(CC2)CN(C(C)=O)c2c(F)cc(F)cc23)CC1` [compound 579], for which, on M1 muscarinic receptor, the Emax fell in the range of 25 to 100% and the “M1 Activity” value was “xxx (activity was measured to be less than 2.0 μM)”. Besides, on M4 muscarinic receptor, the Emax was 25 to 100% and the “M4 Activity” value is given as “xxx (activity was measured to be less than 2.0 μM)”.
As for `CCOC(=O)N1C2CCC1CC(N1CCC3(CC1)CN(C(C)=O)c1ccc(S(C)(=O)=O)cc13)C2` (stereo not drawn) [compound 580], on M1 muscarinic receptor, the Emax was 25 to 100% and the “M1 Activity” value is listed as “xxx (activity was measured to be less than 2.0 μM)”. In addition, at M4 muscarinic receptor, the Emax is 25 to 100% and the “M4 Activity” value was “x (activity was measured to be greater than 5.0 μM)”.
With `CC(=O)N[C@H]1CCC2(CCN(CCC3CC4CCC3C4)CC2)c2ccccc21` (stereo partly drawn) [compound 581], at M1 muscarinic receptor, the Emax is 25 to 100% and the “M1 Activity” value is given as “xxx (activity was measured to be less than 2.0 μM)”. Also, on M4 muscarinic receptor, the maximum response (Emax) was under 25% and the “M4 Activity” value is “xxx (activity was measured to be less than 2.0 μM)”.
As for `CCOC(=O)N1C2CCC1CC(N1CCC3(CC1)CN(C(C)=O)c1ccc(C(F)(F)F)cc13)C2` (stereo not drawn) [compound 583], on M1 muscarinic receptor, the Emax was 25 to 100% and the “M1 Activity” value is given as “xxx (activity was measured to be less than 2.0 μM)”. In addition, on M4 muscarinic receptor, the Emax lay within 25 to 100% and the “M4 Activity” value is “xxx (activity was measured to be less than 2.0 μM)”.
Regarding `CN(C)C(=O)N1CC2(CCN(C[C@@H]3CCN(C(=O)OCC4CC4)C3)CC2)c2cc(F)ccc21` [compound 584], at M1 muscarinic receptor, the Emax was 25 to 100% and the “M1 Activity” value is reported as “xxx (activity was measured to be less than 2.0 μM)”. For the same compound, at M4 muscarinic receptor, the Emax was in the range of 25 to 100% and the “M4 Activity” value is reported as “xxx (activity was measured to be less than 2.0 μM)”.
Regarding `CCOC(=O)N1CCC(N2CCC3(CC2)CN(c2ccccn2)c2ccc(F)cc23)CC1` [compound 585], on M1 muscarinic receptor, the Emax was in the range of 25 to 100% and the “M1 Activity” value is on record as “xxx (activity was measured to be less than 2.0 μM)”. Also, on M4 muscarinic receptor, the Emax is 25 to 100% and the “M4 Activity” value is “xxx (activity was measured to be less than 2.0 μM)”.
In the case of `COC(=O)NC1CC2(CCN(C3C[C@@H]4CC[C@@H]3C4)CC2)c2ccccc21` (stereo partly drawn) [compound 586], at M1 muscarinic receptor, the Emax was in the range of 25 to 100% and the “M1 Activity” value was “xxx (activity was measured to be less than 2.0 μM)”. Also, at M4 muscarinic receptor, the Emax lay within 25 to 100% and the “M4 Activity” value is “xxx (activity was measured to be less than 2.0 μM)”.
With `CCOC(=O)N1CCC(N2CCCC3(CC2)CN(C(C)=O)c2ccc(F)cc23)CC1` (stereo not drawn) [compound 587], on M1 muscarinic receptor, the Emax lay in the range of 25 to 100% and the “M1 Activity” value was “xxx (activity was measured to be less than 2.0 μM)”. Besides, on M4 muscarinic receptor, the Emax is 25 to 100% and the “M4 Activity” value is recorded as “xxx (activity was measured to be less than 2.0 μM)”.
Take `CN(C)C(=O)N1CC2(CCN(C3CCN(C(=O)COc4ccccc4)CC3)CC2)c2cc(F)ccc21` [compound 588]: on M1 muscarinic receptor, the Emax was under 25% and the “M1 Activity” value was “x (activity was measured to be greater than 5.0 μM)”. For the same compound, at M4 muscarinic receptor, the maximum response (Emax) was under 25% and the “M4 Activity” value is given as “x (activity was measured to be greater than 5.0 μM)”.
Consider `CC#CC(C)OC(=O)N1CCC(N2CCC3(CC2)CN(C(C)=O)c2ccccc23)CC1` (stereo not drawn) [compound 589], for which, on M1 muscarinic receptor, the Emax is under 25% and the “M1 Activity” value is “x (activity was measured to be greater than 5.0 μM)”. Further, at M4 muscarinic receptor, the maximum response (Emax) is under 25% and the “M4 Activity” value is “x (activity was measured to be greater than 5.0 μM)”.
As for `CCCCC(=O)N1CCC(N2CCC3(CC2)CN(C(=O)N(C)C)c2ccc(F)cc23)CC1` [compound 590], at M1 muscarinic receptor, the Emax was 25 to 100%; the “M1 Activity” value is “xx (activity was measured to be between 2.0 μM and 5.0 μM)”. Moreover, at M4 muscarinic receptor, the maximal effect (Emax) was under 25%; the “M4 Activity” value is “xx (activity was measured to be between 2.0 μM and 5.0 μM)”.
For the compound `CCOC(=O)N1CCC(N2CCC3(CCCc4ccccc43)CC2)CC1` [compound 591], on M1 muscarinic receptor, the Emax was over 100% and the “M1 Activity” value is on record as “xxx (activity was measured to be less than 2.0 μM)”. For the same compound, at M4 muscarinic receptor, the Emax was in the range of 25 to 100% and the “M4 Activity” value is on record as “xxx (activity was measured to be less than 2.0 μM)”.
Turning to `CN(C)C(=O)N1CC2(CCN(C3CCN(C(=O)CC(F)(F)F)CC3)CC2)c2cc(F)ccc21` [compound 592], at M1 muscarinic receptor, the maximum response (Emax) fell in the range of 25 to 100%; the “M1 Activity” value was “xx (activity was measured to be between 2.0 μM and 5.0 μM)”. Further, on M4 muscarinic receptor, the Emax is under 25% and the “M4 Activity” value is on record as “x (activity was measured to be greater than 5.0 μM)”.
Consider `Cc1ccc(N2CCC(N3CCC4(CC3)CN(C(=O)N(C)C)c3ccc(F)cc34)CC2)nn1` [compound 594], for which, on M1 muscarinic receptor, the Emax was in the range of 25 to 100% and the “M1 Activity” value is “x (activity was measured to be greater than 5.0 μM)”. Moreover, on M4 muscarinic receptor, the Emax is under 25%; the “M4 Activity” value was “xx (activity was measured to be between 2.0 μM and 5.0 μM)”.
In the case of `CN(C)C(=O)N1CC2(CCN(C3CCN(C(=O)OCC4CC4)CC3)CC2)c2cc(F)ccc21` [compound 595], on M1 muscarinic receptor, the maximal effect (Emax) lay within 25 to 100% and the “M1 Activity” value is listed as “xxx (activity was measured to be less than 2.0 μM)”. In addition, on M4 muscarinic receptor, the Emax lay in the range of 25 to 100% and the “M4 Activity” value was “xxx (activity was measured to be less than 2.0 μM)”.
`CCCOC(=O)N1CCC(N2CCC3(CC2)CN(CCOC)c2ccc(F)cc23)CC1` [compound 596]: at M1 muscarinic receptor, the Emax fell in the range of 25 to 100% and the “M1 Activity” value is “xxx (activity was measured to be less than 2.0 μM)”. At M4 muscarinic receptor, the Emax fell in the range of 25 to 100% and the “M4 Activity” value is on record as “xxx (activity was measured to be less than 2.0 μM)”.
Consider `Cc1ccc2c(c1)C1(CCN(C3CC4CCC3C4)CC1)CN2C(=O)c1ccco1` (stereo not drawn) [compound 597], for which, at M1 muscarinic receptor, the Emax lay in the range of 25 to 100% and the “M1 Activity” value was “x (activity was measured to be greater than 5.0 μM)”. On M4 muscarinic receptor, the Emax was under 25% and the “M4 Activity” value is “x (activity was measured to be greater than 5.0 μM)”.
For the compound `CCOC(=O)N1CCC(N2CCC3(CC2)CN(C(=O)N2CCCCC2)c2ccc(F)cc23)CC1` [compound 598], at M1 muscarinic receptor, the Emax is 25 to 100% and the “M1 Activity” value is “xxx (activity was measured to be less than 2.0 μM)”. In addition, at M4 muscarinic receptor, the Emax was 25 to 100% and the “M4 Activity” value is “xxx (activity was measured to be less than 2.0 μM)”.
For the compound `COc1cc2c(cc1OC)C1(CCN(C3CCCCCCCCCCC3)CC1)C[C@@H]2NC(C)=O` [compound 599], on M1 muscarinic receptor, the Emax is 25 to 100% and the “M1 Activity” value is recorded as “x (activity was measured to be greater than 5.0 μM)”. On M4 muscarinic receptor, the maximal response (Emax) was in the range of 25 to 100% and the “M4 Activity” value was “x (activity was measured to be greater than 5.0 μM)”.
Take `CC(=O)N1CC2(CCN(CC3=C(C)C=CCC3(C)C)CC2)c2cc(F)ccc21` [compound 600]: at M1 muscarinic receptor, the Emax is under 25% and the “M1 Activity” value is “x (activity was measured to be greater than 5.0 μM)”. Also, on M4 muscarinic receptor, the Emax is under 25% and the “M4 Activity” value was “x (activity was measured to be greater than 5.0 μM)”.
Turning to `CC(=O)N[C@H]1CCC2(CCN(CC3CCOC3)CC2)c2ccccc21` (stereo partly drawn) [compound 602], at M1 muscarinic receptor, the Emax is 25 to 100% and the “M1 Activity” value is listed as “xxx (activity was measured to be less than 2.0 μM)”. In addition, at M4 muscarinic receptor, the maximal effect (Emax) fell in the range of 25 to 100%; the “M4 Activity” value is “xx (activity was measured to be between 2.0 μM and 5.0 μM)”.
With `CCOC(=O)N1CCC(N2CCC3(CC2)CN(C(C)=O)c2ccc(C(F)(F)F)cc23)CC1` [compound 603], at M1 muscarinic receptor, the Emax is 25 to 100% and the “M1 Activity” value is reported as “xxx (activity was measured to be less than 2.0 μM)”. On M4 muscarinic receptor, the Emax was in the range of 25 to 100% and the “M4 Activity” value is listed as “xxx (activity was measured to be less than 2.0 μM)”.
